Experimental data reported in patent publication US6440999B1, “Intimal thickening inhibitory agent” (Chugai Seiyaku Kabushiki Kaisha, priority 1995, dated 2002).
Marks after values point to notes of the source that are not given here.

Columns and labels:
[1] = test system: A7r5 cells derived from the aorta of a rat; test: Inhibition of serum-stimulated proliferation of vascular smooth muscle cells, BrdU uptake (EIA); assay type: cell-based; settings: for Absorbance (difference between 405 nm and 492 nm), BrdU uptake: n = 3, mean ± SD
Method: In order to assess the inhibitory effect of a compound of the present invention on serum-stimulated pro-liferation of vascular smooth muscle cells in vitro, the compound obtained in Example 36 was tested using A7r5 cells derived from the aorta of a rat (ATCC-CRL-1444).
Using DMEM medium containing 10% FBS, the cells were placed on 96-well microtiter plates with 5×10^3 cells/0.2 ml/well and then incubated. The medium was exchanged for 2% FBS-containing DMEM medium on the third day and then for 0.2% FBS-containing DMEM medium on the fourth day from the start of the incubation. After 48-hour incubation in the 0.2% FBS-containing DMEM medium, the medium was removed, 0.1 ml of DMEM medium and the test compound were added, and the cells were stimulated with serum (2% FBS) to proliferate. The test compound was added to the wells in the form of a solution or suspension in ethanol in an amount of 0.5 μl/well to final compound concentrations indicated in Table 1 below and the resultant ethanol concentration of 0.5% in each well. BrdU was pulsed to the wells from the 16th to 38th hours or from the 38th to 64th hours after the stimulation to a final concentration of 10 μM, and the uptake of BrdU into DNA was evaluated as an indication of cell proliferation. The BrdU uptake was measured by means of an EIA kit containing an anti-BrdU antibody (5-Bromo-2′-deoxy-uridine Labeling and Detection Kit III, available from Bohringer Mannheim Biochemica).

[2] = test system: A7r5 cells derived from the aorta of a rat; test: Inhibition of serum-stimulated proliferation of vascular smooth muscle cells, acid phosphatase activity; assay type: cell-based; settings: 48 hours after 2% FBS stimulation, n = 3, mean ± SD; for Acid Phosphatase Activity Absorbance (OD405): control 0.867 ± 0.089
Method: In order to assess the inhibitory effect of the compounds of the present invention on serum-stimulated proliferation of vascular smooth muscle cells in vitro, the compounds of Examples 1, 4, 20, 22, 27, 31, 36, 50, 52, and 58 were tested using A7r5 cells derived from the aorta of a rat (ATCC-CRL-1444).
Using DMEM medium containing 10% FBS, the cells were placed on 96-well microtiter plates with 5×10^3 cells/0.2 ml/ well and then incubated. The medium was exchanged for 2% FBS-containing DMEM medium on the third day and then for 0.2% FBS-containing DMEM medium on the fourth day from the start of the incubation. After 24-hour incubation in the 0.2% FBS-containing DMEM medium, the test compound was added. Each of the test compounds were added to the wells in the form of a solution or suspension in ethanol in an amount of 1 μl/well to final compound concentrations indicated in Table 3 below and the resultant ethanol concentration of 0.5% in each well. After additional 24-hour incubation, the medium was removed, and 0.2 ml of DMEM medium and the test compound were added thereto again, and the cells were stimulated by serum (2% FBS). Forty-eight hours after the stimulation, the acid phosphatase activity in the wells was measured by means of a kit (Abacus Cell Proliferation Kit, available from Clontech Lab. Inc. CA, U.S.A.) and evaluated as an indication of cell proliferation.

[3] = test system: rabbit balloon injury models; test: In vivo effect in intimal thickening model (1), rabbit balloon injury
Method: In order to assess the inhibitory effect of the compound of the present invention on intimal thickening in vivo, the compound of Example 36 was tested using rabbit balloon injury models.
(§1) Cholesterol-fed rabbits in groups of eight (JW: CSK male, 11-week-old) were used to prepare rabbit balloon injury models. Briefly, rabbits were fed with a high cholesterol diet (cholesterol content: 1%) for 2 weeks before balloon treatment. The animals were balloon-treated with a balloon catheter (3 French, available from Baxter) under anesthesia to peel the aortic intima 5 times. The animals were orally administered with the compound which was suspended in a 1% carboxymethyl cellulose (CMC) solution (200 mg/kg). On the other hand, control animals were orally administered with a 1% CMC solution without the compound. The administrations were performed once a day from 1 week before the balloon treatment until the day before the dissection for evaluation.
After four weeks from the balloon treatment, specimens were taken from the aorta, stained with Elastica van Geison, and analyzed under an optical microscope. The image was processed to measure the thickness and area of the thickened intima. Averages of the thickness and area were obtained for each individual animal. The animals which died due to the operation and those having a serum cholesterol level of 3500 mg/dl or higher were excluded from the measurement. The number of animals used for the evaluation was 5 or 6 per group.

[4] = test system: rabbit balloon injury models; test: In vivo effect in intimal thickening model (2), rabbit balloon injury
Method: In order to assess the inhibitory effect of the compound of the present invention on intimal thickening in vivo, the compound of Example 36 was tested using rabbit balloon injury models that were different from those used in Test Example 4 in week-age. Further, the effect was compared with that of Probucol which was reported to have an inhibitory effect on intimal thickening in balloon injury models (see Proc. Natl. Acad. Sci., U.S.A., 89, pp 11312-11316 (1992)).
as §1, with “seven” for “eight”, “15-week-old)” for “11-week-old)”, “(4” for “(3”, “CMC” for “carboxymethyl cellulose (CMC)”, “evaluation. In order to evaluate the degree of balloon injury, a balloon-nontreated group (3 animals) was prepared.” for “evaluation.”
After four weeks from the balloon treatment, specimens were taken from the aorta, stained with Elastica van Geison, and analyzed under an optical microscope. The image was processed to measure the thickness and area of the thickened intima. Averages of the thickness and area were obtained for each individual animal. The animals which died after the operation and those having a serum cholesterol level of 3500 mg/dl or higher were excluded from the measurement. The number of animals used for the evaluation was 4 or 5 per group.

[5] = both intimal thickness and intimal area, 200 mg/kg oral

Compound: CCCCCC1(CCCCC)Cc2c(cc(C(C)(C)C)c(O)c2C(C)(C)C)O1 [Example 36, 4,6-Di-t-butyl-2,2-di-n-pentyl-5-hydroxy-2,3-dihydrobenzofuran]
- Absorbance (difference between 405 nm and 492 nm), BrdU uptake ([1]; 10 μM, BrdU pulse 16-38 hrs. after 2% FBS stimulation, control 0.433 ± 0.008): 0.397 ± 0.054
- Absorbance (difference between 405 nm and 492 nm), BrdU uptake ([1]; 10 μM, BrdU pulse 38-64 hrs. after 2% FBS stimulation, control 0.436 ± 0.060): 0.195 ± 0.017
- Absorbance (difference between 405 nm and 492 nm), BrdU uptake ([1]; 30 μM, BrdU pulse 16-38 hrs. after 2% FBS stimulation, control 0.433 ± 0.008): 0.362 ± 0.026
- Absorbance (difference between 405 nm and 492 nm), BrdU uptake ([1]; 30 μM, BrdU pulse 38-64 hrs. after 2% FBS stimulation, control 0.436 ± 0.060): 0.085 ± 0.006
- Absorbance (difference between 405 nm and 492 nm), BrdU uptake ([1]; 100 μM, BrdU pulse 16-38 hrs. after 2% FBS stimulation, control 0.433 ± 0.008): 0.290 ± 0.031
- Absorbance (difference between 405 nm and 492 nm), BrdU uptake ([1]; 100 μM, BrdU pulse 38-64 hrs. after 2% FBS stimulation, control 0.436 ± 0.060): 0.049 ± 0.006
- Inhibition of serum-stimulated proliferation of vascular smooth muscle cells (in words) ([1]; BrdU uptake, 10-100 μM): inhibits the serum-stimulated proliferation of vascular smooth muscle cells dose-dependently
- Acid Phosphatase Activity Absorbance (OD405) ([2]; 10 μM): 0.733 ± 0.060
- Acid Phosphatase Activity Absorbance (OD405) ([2]; 100 μM): 0.539 ± 0.055
- activity at 10 µM ([2]; Rattus norvegicus, A7R5, 10 μM, control 100 ± 10): 84 ± 7%
- activity at 100 µM ([2]; Rattus norvegicus, A7R5, 100 μM, control 100 ± 10): 62 ± 6%
- Inhibitory effect on intimal thickening (in words) [3, 5]: significant inhibitory effect on intimal thickening
- Area of Intima ([3]; cholesterol-fed rabbits, 11-week-old, 200 mg/kg oral once a day, four weeks after balloon treatment, control 0.26 ± 0.03, mean ± SD): 0.11 ± 0.08** mm^2
- Thickness of Intima ([3]; cholesterol-fed rabbits, 11-week-old, 200 mg/kg oral once a day, four weeks after balloon treatment, control 103 ± 12, mean ± SD): 45 ± 31 μm
- Inhibitory effect on intimal thickening compared with Probucol (in words) ([4]; 200 mg/kg oral): higher than that of Probucol
- Inhibitory effect on intimal thickening (in words) [4, 5]: significant inhibitory effect on intimal thickening
- Area of Intima ([4]; cholesterol-fed rabbits, 15-week-old, 200 mg/kg oral once a day, four weeks after balloon treatment, control 1.32 ± 0.22, mean ± SD): 0.81 ± 0.22 mm²
- Thickness of Intima ([4]; cholesterol-fed rabbits, 15-week-old, 200 mg/kg oral once a day, four weeks after balloon treatment, control 119 ± 19, mean ± SD): 76 ± 16 μm
